Test results published in ChEMBL document CHEMBL5518181, “Studies of antibacterial activity (in vitro and in vivo) and mode of action for des-acyl tridecaptins (DATs)” (Eur J Med Chem, 2024).
≈ marks a conversion by molar mass, not a printed value.

Experiments:
[1] = Cytotoxicity against human HepG2 cells incubated for 40 hrs by celltiter-glo luminescent cell viability assay; type: toxicity, cell-based
[2] = Binding affinity to gram negative bacterial lipid II assessed as dissociation constant by ITC analysis; parameters: species or system Bacteria
Klebsiella pneumoniae [3] = test: Antibacterial activity against wild-type Klebsiella pneumoniae ATCC 13883 assessed as inhibition of bacterial growth incubated for 18 hrs; type: functional; conditions: read-out: MIC100
[4] = Hemolytic activity in human red blood cells at 400 ug/ml incubated for 45 mins by spectrophotometric analysis relative to control; type: toxicity, cell-based, Erythrocyte; conditions: red blood cells (erythrocytes), at 400 µg/mL, read-out: Activity
Escherichia coli [5] = test: Antibacterial activity against wild-type Escherichia coli ATCC 25922 assessed as inhibition of bacterial growth incubated for 18 hrs; type: functional; conditions: read-out: MIC100
Escherichia coli [6] = test: Antibacterial activity against Escherichia coli ATCC 25922 harboring hldE knock-out assessed as inhibition of bacterial growth incubated for 18 hrs; type: functional; conditions: read-out: MIC100
Escherichia coli [7] = test: Antibacterial activity against wild-type Escherichia coli ATCC 25922 assessed as inhibition of bacterial growth by measuring fold increase in MIC incubated for 18 hrs in presence of 50% heat inactivated human serum relative to control; type: functional
Acinetobacter baumannii = test: Antibacterial activity against wild-type Acinetobacter baumannii ATCC 19606 assessed as inhibition of bacterial growth incubated for 20 hrs; type: functional; conditions: read-out: MIC100
Klebsiella pneumoniae [8] = test: Antibacterial activity against wild-type Klebsiella pneumoniae ATCC 13883 assessed as inhibition of bacterial growth incubated for 18 hrs in presence of 50% heat inactivated human serum; type: functional; conditions: read-out: MIC100
Escherichia coli [9] = test: Antibacterial activity against wild-type Escherichia coli ATCC 25922 assessed as inhibition of bacterial growth incubated for 18 hrs in presence of 50% heat inactivated human serum; type: functional; conditions: read-out: MIC100
[10] = Hydrophobicity of compound assessed as %MeCN at peak elution by RP-HPLC analysis; type: physicochemical
Staphylococcus aureus = test: Antibacterial activity against […] assessed as inhibition of bacterial growth incubated for 18 hrs; type: functional; conditions: ATCC 29213, read-out: MIC100
Escherichia coli [11] = test: Antibacterial activity against Escherichia coli ATCC 25922 harboring tolC knock-out assessed as inhibition of bacterial growth incubated for 18 hrs; type: functional; conditions: read-out: MIC100
Pseudomonas aeruginosa = test: Antibacterial activity against wild-type Pseudomonas aeruginosa PAO1 assessed as inhibition of bacterial growth incubated for 24 hrs; type: functional; conditions: read-out: MIC100

Row | SMILES | IC50 at 40 h [1] [µg/mL] | Kd [2] [nM] | MIC (Klebsiella pneumoniae [3]) [µg/mL] | hemolysis at 0.75 h, 400 ug/ml [4] [%] | MIC (Escherichia coli [5]) [µg/mL] | MIC (Escherichia coli [6]) [µg/mL] | fold change (FC) (Escherichia coli [7]) | MIC (Acinetobacter baumannii) [µg/mL] | MIC (Klebsiella pneumoniae [8]) [µg/mL] | MIC (Escherichia coli [9]) [µg/mL] | MeCN percentage at peak elution [10] [%] | MIC (Staphylococcus aureus) [µg/mL] | MIC (Escherichia coli [11]) [µg/mL] | MIC (Pseudomonas aeruginosa) [µg/mL]
1 | CC[C@H](C)[C@@H](NC(=O)[C@@H](NC(=O)[C@H](CCC(N)=O)NC(=O)[C@H](Cc1ccccc1)NC(=O)[C@@H](CCN)NC(=O)[C@H](CCN)NC(=O)[C@H](CO)NC(=O)[C@@H](Cc1c[nH]c2ccccc12)NC(=O)[C@@H](CO)NC(=O)CNC(=O)[C@@H](CCN)NC(=O)[C@H](N)C(C)C)C(C)C)C(=O)N[C@@H](C)C(=O)O | 41 (≈ 29.4 µM) | 1400 | > 64 | 2.1 | ≥ 32 |  |  |  |  |  |  |  |  | 
2 | CC[C@H](C)[C@@H](NC(=O)[C@@H](NC(=O)[C@H](CCC(=O)O)NC(=O)[C@H](Cc1ccccc1)NC(=O)[C@@H](CCN)NC(=O)[C@H](CCN)NC(=O)[C@H](CCN)NC(=O)[C@@H](Cc1c[nH]c2ccccc12)NC(=O)[C@@H](CO)NC(=O)CNC(=O)[C@@H](CCN)NC(=O)[C@H](N)C(C)C)C(C)C)C(=O)N[C@@H](C)C(=O)O | > 170 | 800 | > 64 | 1.1 | > 64 |  |  |  |  |  |  |  |  | 
3 | CC[C@H](C)[C@@H](NC(=O)[C@@H](NC(=O)[C@H](CCC(=O)O)NC(=O)[C@H](Cc1ccccc1)NC(=O)[C@@H](CCN)NC(=O)[C@H](CCN)NC(=O)[C@H](CO)NC(=O)[C@@H](Cc1c[nH]c2ccccc12)NC(=O)[C@@H](CO)NC(=O)CNC(=O)[C@@H](CCN)NC(=O)[C@H](NC(=O)[C@@H]1CCCN1)C(C)C)C(C)C)C(=O)N[C@@H](C)C(=O)O | 109 (≈ 73.1 µM) |  | 4 (≈ 2.68 µM) | 5.5 | 4 (≈ 2.68 µM) | 2 (≈ 1.34 µM) | 2 | 64 (≈ 42.9 µM) | 1 | 1 | 41.9 | > 64 | 2 (≈ 1.34 µM) | > 64
4 | CC[C@H](C)[C@@H](NC(=O)[C@@H](NC(=O)[C@H](CCC(=O)O)NC(=O)[C@H](Cc1ccccc1)NC(=O)[C@@H](CCN)NC(=O)[C@H](CCN)NC(=O)[C@H](CO)NC(=O)[C@@H](Cc1c[nH]c2ccccc12)NC(=O)[C@@H](CO)NC(=O)CNC(=O)[C@@H](CCN)NC(=O)[C@H](NC(=O)CCN)C(C)C)C(C)C)C(=O)N[C@@H](C)C(=O)O | > 170 | 390 | 2 (≈ 1.36 µM) | 0 | ≥ 2 | 0.5 (≈ 0.341 µM) |  | 32 (≈ 21.8 µM) |  |  | 39.8 | 64 (≈ 43.7 µM) | 0.5 (≈ 0.341 µM) | 8 (≈ 5.46 µM)
5 | CC[C@H](C)[C@@H](NC(=O)[C@@H](NC(=O)[C@H](CCC(=O)O)NC(=O)[C@H](Cc1ccccc1)NC(=O)[C@@H](CCN)NC(=O)[C@H](CCN)NC(=O)[C@H](CO)NC(=O)[C@@H](Cc1c[nH]c2ccccc12)NC(=O)[C@@H](CO)NC(=O)CNC(=O)[C@@H](CCN)NC(=O)[C@H](NC(=O)[C@@H](N)C(C)C)C(C)C)C(C)C)C(=O)N[C@@H](C)C(=O)O | 87 (≈ 58.2 µM) |  | 2 (≈ 1.34 µM) | 14.6 | 2 (≈ 1.34 µM) | 32 (≈ 21.4 µM) | 2 | 64 (≈ 42.8 µM) | 0.5 | 1 | 41.5 | > 64 | 1 (≈ 0.669 µM) | 64 (≈ 42.8 µM)
6 | CC[C@H](C)[C@@H](NC(=O)[C@@H](NC(=O)[C@H](C)NC(=O)[C@H](Cc1ccccc1)NC(=O)[C@@H](CCN)NC(=O)[C@H](CCN)NC(=O)[C@H](CO)NC(=O)[C@@H](Cc1c[nH]c2ccccc12)NC(=O)[C@@H](CO)NC(=O)CNC(=O)[C@@H](CCN)NC(=O)[C@H](N)C(C)C)C(C)C)C(=O)N[C@@H](C)C(=O)O | > 170 | 1220 | > 64 | 0 | > 64 |  |  |  |  |  |  |  |  | 
7 | CC[C@H](C)[C@@H](NC(=O)[C@@H](NC(=O)[C@H](CCC(=O)O)NC(=O)[C@H](Cc1ccccc1)NC(=O)[C@@H](CCN)NC(=O)[C@H](CCN)NC(=O)[C@H](CO)NC(=O)[C@@H](Cc1c[nH]c2ccccc12)NC(=O)[C@@H](CO)NC(=O)CNC(=O)[C@@H](CCN)NC(=O)[C@H](NC(=O)CCCCCN)C(C)C)C(C)C)C(=O)N[C@@H](C)C(=O)O | > 170 |  | 32 (≈ 21.2 µM) | 3.5 | 64 (≈ 42.4 µM) | 8 (≈ 5.31 µM) | 8 | 64 (≈ 42.4 µM) | 2 | 2 | 40.1 | > 64 | 32 (≈ 21.2 µM) | > 64
8 | CC[C@H](C)[C@@H](NC(=O)[C@@H](NC(=O)[C@H](CCC(=O)O)NC(=O)[C@H](Cc1ccccc1)NC(=O)[C@@H](CCN)NC(=O)[C@H](C)NC(=O)[C@H](CO)NC(=O)[C@@H](Cc1c[nH]c2ccccc12)NC(=O)[C@@H](CO)NC(=O)CNC(=O)[C@@H](CCN)NC(=O)[C@H](NC(=O)[C@H](C)N)C(C)C)C(C)C)C(=O)N[C@@H](C)C(=O)O | 121 (≈ 84.2 µM) | 3700 | 4 (≈ 2.78 µM) | 7.9 | 8 (≈ 5.57 µM) | 4 (≈ 2.78 µM) |  | 32 (≈ 22.3 µM) | 16 | 8 | 44.3 | > 64 | 8 (≈ 5.57 µM) | > 64
9 | CC[C@H](C)[C@@H](NC(=O)[C@@H](NC(=O)[C@H](CCC(=O)O)NC(=O)[C@H](Cc1ccccc1)NC(=O)[C@@H](CN)NC(=O)[C@H](CCN)NC(=O)[C@H](CO)NC(=O)[C@@H](Cc1c[nH]c2ccccc12)NC(=O)[C@@H](CO)NC(=O)CNC(=O)[C@@H](CCN)NC(=O)[C@H](N)C(C)C)C(C)C)C(=O)N[C@@H](C)C(=O)O | > 170 | 1170 | > 64 | 1.6 | > 64 |  |  |  |  |  |  |  |  | 
10 | CC[C@H](C)[C@@H](NC(=O)[C@@H](NC(=O)[C@H](CCC(=O)O)NC(=O)[C@H](Cc1ccccc1)NC(=O)[C@@H](CCN)NC(=O)[C@H](CCN)NC(=O)[C@H](CO)NC(=O)[C@@H](Cc1c[nH]c2ccccc12)NC(=O)[C@@H](CO)NC(=O)CNC(=O)[C@@H](CCN)NC(=O)[C@H](NC(=O)[C@H](C)N)C(C)C)C(C)C)C(=O)N[C@@H](C)C(N)=O | > 170 | 770 | 32 (≈ 21.8 µM) | 1.5 | 8 (≈ 5.46 µM) |  |  |  |  |  |  |  |  | 
11 | CC[C@H](C)[C@@H](NC(=O)[C@@H](NC(=O)[C@H](CCC(=O)O)NC(=O)[C@H](Cc1ccccc1)NC(=O)[C@@H](CCN)NC(=O)[C@H](CCN)NC(=O)[C@H](CO)NC(=O)[C@@H](Cc1c[nH]c2ccccc12)NC(=O)[C@@H](CO)NC(=O)CNC(=O)[C@@H](CCN)NC(=O)[C@H](N)C(C)C)C(C)C)C(=O)O | > 170 | 230 | > 64 | 1 | > 64 |  |  |  |  |  |  |  |  | 
12 | CC(C)[C@H](NC(=O)[C@H](CCC(=O)O)NC(=O)[C@H](Cc1ccccc1)NC(=O)[C@@H](CCN)NC(=O)[C@H](CCN)NC(=O)[C@H](CO)NC(=O)[C@@H](Cc1c[nH]c2ccccc12)NC(=O)[C@@H](CO)NC(=O)CNC(=O)[C@@H](CCN)NC(=O)[C@H](N)C(C)C)C(=O)N[C@@H](C(=O)N[C@@H](C)C(N)=O)C(C)(C)C | 127 (≈ 91.1 µM) | 330 | 2 (≈ 1.44 µM) | 1.6 | 16 (≈ 11.5 µM) |  |  |  |  |  |  |  |  | 
